Experimental data reported in patent publication US20170334959A1 (priority 2015, published 2017).
Entries after “also recorded” stand apart in the source; their conditions may differ. No end group written: not given here.

What was measured:
human Nav1.6 = human Nav1.6 (Homo sapiens, UniProt Q9UQD0); format: cell-based
human Nav1.7 = human Nav1.7 (Homo sapiens, UniProt Q15858, W1161R); format: cell-based; conditions: read-out: Nav1.7 IC50
[1] = tested on: CFA-induced thermal hyperalgesia; set-up: species or system mice; conditions: mouse, in vivo
[2] = tested on: carrageenan-induced thermal hyperalgesia; set-up: species or system mice; conditions: mouse, in vivo
[3] = tested on: thermal withdrawal latency; set-up: species or system mice; conditions: mouse, in vivo
[4] = tested on: acute thermal pain (hot plate latency); conditions: in vivo
[5] = tested on: CFA-induced tactile allodynia; set-up: species or system mice; conditions: mouse, in vivo
[6] = tested on: acute thermal pain (tail withdrawal latency); conditions: in vivo
[7] = tested on: formalin-induced flinching (injury-induced pain); conditions: rat, in vivo
isolated nerves = conditions: cited from earlier work
[8] = tested on: acute and inflammatory pain; conditions: in vivo; cited from earlier work

Sequence of human Nav1.6 (Q9UQD0 whole entry): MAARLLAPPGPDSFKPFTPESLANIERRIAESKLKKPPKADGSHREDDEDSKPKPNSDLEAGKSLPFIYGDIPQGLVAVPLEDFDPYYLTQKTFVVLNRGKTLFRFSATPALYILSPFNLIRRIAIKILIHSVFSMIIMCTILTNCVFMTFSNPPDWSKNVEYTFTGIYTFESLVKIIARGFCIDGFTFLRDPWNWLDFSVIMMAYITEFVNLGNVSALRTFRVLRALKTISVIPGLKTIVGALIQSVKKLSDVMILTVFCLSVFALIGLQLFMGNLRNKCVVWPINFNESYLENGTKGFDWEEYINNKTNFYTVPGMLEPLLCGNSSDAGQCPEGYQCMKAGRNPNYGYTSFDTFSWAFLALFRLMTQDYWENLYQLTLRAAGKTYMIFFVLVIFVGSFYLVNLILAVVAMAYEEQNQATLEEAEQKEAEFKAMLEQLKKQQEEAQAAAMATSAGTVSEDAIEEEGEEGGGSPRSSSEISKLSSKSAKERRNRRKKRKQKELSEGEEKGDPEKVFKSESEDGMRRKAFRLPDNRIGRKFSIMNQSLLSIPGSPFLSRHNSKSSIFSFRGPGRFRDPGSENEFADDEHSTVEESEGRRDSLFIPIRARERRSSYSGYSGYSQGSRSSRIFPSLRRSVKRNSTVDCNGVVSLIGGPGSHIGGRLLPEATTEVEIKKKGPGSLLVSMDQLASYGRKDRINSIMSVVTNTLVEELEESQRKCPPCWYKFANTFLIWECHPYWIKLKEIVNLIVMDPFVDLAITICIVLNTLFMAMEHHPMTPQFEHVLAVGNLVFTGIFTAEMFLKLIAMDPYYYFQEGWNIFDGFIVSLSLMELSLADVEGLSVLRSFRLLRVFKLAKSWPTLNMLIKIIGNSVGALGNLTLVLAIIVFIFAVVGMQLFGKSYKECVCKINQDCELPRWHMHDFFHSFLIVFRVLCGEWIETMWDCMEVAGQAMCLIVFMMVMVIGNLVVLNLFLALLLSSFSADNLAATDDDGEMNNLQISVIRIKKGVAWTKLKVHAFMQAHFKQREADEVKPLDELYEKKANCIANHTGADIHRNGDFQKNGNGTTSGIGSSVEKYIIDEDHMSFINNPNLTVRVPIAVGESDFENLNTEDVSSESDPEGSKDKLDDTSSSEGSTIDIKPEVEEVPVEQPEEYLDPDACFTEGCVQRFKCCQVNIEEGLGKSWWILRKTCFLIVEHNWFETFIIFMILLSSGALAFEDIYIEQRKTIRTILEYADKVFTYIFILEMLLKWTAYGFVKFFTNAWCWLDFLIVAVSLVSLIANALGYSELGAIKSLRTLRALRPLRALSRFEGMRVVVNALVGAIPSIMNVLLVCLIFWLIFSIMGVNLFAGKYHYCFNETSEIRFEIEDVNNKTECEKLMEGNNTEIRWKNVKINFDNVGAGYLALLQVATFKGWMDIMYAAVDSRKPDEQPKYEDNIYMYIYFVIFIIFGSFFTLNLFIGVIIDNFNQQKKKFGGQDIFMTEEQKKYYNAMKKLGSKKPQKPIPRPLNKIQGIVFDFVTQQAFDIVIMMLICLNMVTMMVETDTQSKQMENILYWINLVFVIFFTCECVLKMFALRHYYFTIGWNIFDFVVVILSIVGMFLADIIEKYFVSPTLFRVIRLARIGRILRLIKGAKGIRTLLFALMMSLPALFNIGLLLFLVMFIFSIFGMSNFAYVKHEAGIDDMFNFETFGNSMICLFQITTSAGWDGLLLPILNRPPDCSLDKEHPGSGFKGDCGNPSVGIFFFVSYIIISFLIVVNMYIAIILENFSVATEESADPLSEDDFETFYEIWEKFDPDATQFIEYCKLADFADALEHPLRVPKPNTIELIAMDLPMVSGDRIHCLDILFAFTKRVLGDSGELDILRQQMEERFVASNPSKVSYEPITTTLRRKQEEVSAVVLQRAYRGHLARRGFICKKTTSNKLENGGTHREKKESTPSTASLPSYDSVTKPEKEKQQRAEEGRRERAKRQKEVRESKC

Substance | selectivity for Nav1.7 compared to recombinant Protoxin-II (human Nav1.6) | IC50 (human Nav1.7) | also measured
Ac-QCQKWMQTCDAERKCCEGFSCTLWCKKKLW-NH2 [(-GP) N-Ac-NV1D2974-NH2] | improved selectivity | – | –
Ac-QCQKWMQTCDRERKCCEGFVCTLWCRKKLW-NH2 [(-GP) N-Ac-NV1D3034-NH2] | improved selectivity | – | –
GPACQKWMQTCDANRKCCEGFSCRLWCKKKLW-OH (cysteine pairing not given here) [NV1D3587] | improved selectivity | – | –
GPACQKWMQTCDRNRKCCEGFVCTLWCRKKLW-OH (cysteine pairing not given here) [NV1D3541] | improved selectivity | – | –
GPCCNCSSKWCRDHSRCCGRGSAPAPAPAPAPAPAPAPAPAPGSQCQKWMQTCDAERKCCEGFVCRLWCKKKLW [NV1D3260] | – | 57.6 nM | –
GPCCNCSSKWCRDHSRCCGRGSAPAPAPAPAPAPAPAPAPAPGSQCQKWMQTCDRERKCCEGFVCTLWCRKKLW [NV1D3793] | – | 64.6 nM | –
GPCCNCSSKWCRDHSRCCGRGSAPAPAPAPAPGSQCQKWMQTCDAERKCCEGFVCRLWCKKKLW [NV1D3256] | – | 55.7 nM | –
GPCCNCSSKWCRDHSRCCGRGSGGGGSAPAPAPAPAPAPAPAPAPAPGGGGSGSQCQKWMQTCDRERKCCEGFVCTLWCRKKLW [NV1D3830] | – | 88.6 nM | –
GPCCNCSSKWCRDHSRCCGSAPAPAPAPAPAPAPAPAPAPGSQCQKWMQTCDAERKCCEGFVCRLWCKKKLW [NV1D3262] | – | 89.2 nM | –
GPCCNCSSKWCRDHSRCCGSAPAPAPAPAPAPAPAPAPAPGSQCQKWMQTCDRERKCCEGFVCTLWCRKKLW [NV1D3795] | – | 100 nM | –
GPCCNCSSKWCRDHSRCCGSAPAPAPAPAPGSQCQKWMQTCDRERKCCEGFVCTLWCRKKLW [NV1D3796] | – | 110 nM | –
GPCRTIGPSVCAPAPAPAPAPAPAPAPAPAPQCQKWMQTCDRERKCCEGFVCTLWCRKKLW [NV1D3832] | – | 88.4 nM | –
GPGWCGDPGATCGKLRLYCCSGFCDAYTKTCKDKSSAGGGGSAPAPAPAPAPAPAPAPAPAPAPAPAPAPAPGGGGSQCQKWMQTCDRERKCCEGFVCTLWCRKKLW [NV1D3824] | – | 110 nM | –
GPGWCGDPGATCGKLRLYCCSGFCDSYTKTCKDKSSAGGGGSAPAPAPAPAPAPAPAPAPAPAPAPAPAPAPGGGGSQCQKWMQTCDRERKCCEGFVCTLWCRKKLW [NV1D3822] | – | 74.2 nM | –
GPQCQDWMQTCDRERDCCEGFVCTLWCRKKLW-OH (cysteine pairing not given here) [NV1D3379] | – | 31.6 nM | –
GPQCQKWMQSCDRERKCCEGFVCTLWCRKKLW-OH (cysteine pairing not given here) [NV1D3359] | improved selectivity | – | –
GPQCQKWMQTCDAERKCCEGFSCTLWCKKKLW-NH2 [NV1D2974-NH2] | improved selectivity | – | –
GPQCQKWMQTCDAERKCCEGFSCTLWCKKKLW-OH (cysteine pairing not given here) [NV1D2974] | improved selectivity | – | –
GPQCQKWMQTCDAERKCCEGFVCRLWCKKKLW-NH2 [NV1D2775-NH2] | improved selectivity | – | –
GPQCQKWMQTCDAERKCCEGFVCRLWCKKKLW-OH (cysteine pairing not given here) [NV1D2775] | improved selectivity | – | efficacy in the CFA model / reversal of CFA-induced thermal hyperalgesia [1]: strong efficacy; thermal latencies in the CFA model [1]: close to the cut-off; time at which anti-hyperalgesic effect was first seen post-pump implantation [1]: ≤ 4 h; time by which thermal latency returned to the control level post pump implantation [1]: ≤ 48 h; time of maximum effect, thermal test [1]: 8 h; analgesia in the carrageenan study (thermal withdrawal latency) [2]: significant analgesia; protection from carrageenan-induced thermal hyperalgesia [2]: fully protected; efficacy in the hot plate test [3]: strong, dose-dependent efficacy; also recorded: significant analgesia; hotplate latencies at 50 and 55° C. [3]: near cut-off; hotplate thermal latency compared to the PBS control [3]: modest yet significant increase; efficacy in the hot plate test [4]: significant efficacy; reversal of CFA-induced tactile allodynia [5]: reversed; time by which tactile threshold returned to the control level post pump implantation [5]: ≤ 48 h; time of maximum effect, tactile test [5]: 8 h; efficacy in the tail flick test [6]: significant efficacy; efficacy in the formalin test (flinches) [7]: significant efficacy
GPQCQKWMQTCDAERKCCEGFVCRLWCKKKLWGSAPAPAPAPAPAPAPAPAPAPGSCCNCSSKWCRDHSRCCGR [NV1D3259] | – | 54.9 nM | –
GPQCQKWMQTCDARRKCCEGFVCRLWCKKKLW-OH (cysteine pairing not given here) [NV1D3006] | improved selectivity | – | –
GPQCQKWMQTCDRERKCCEGFVCTLWCRKKLW-NH2 [NV1D3034-NH2] | improved selectivity | – | –

Substance | selectivity for Nav1.7 compared to recombinant Protoxin-II (human Nav1.6) | IC50 (human Nav1.7) | also measured
GPQCQKWMQTCDRERKCCEGFVCTLWCRKKLW-NH-butyl [NV1D3034-NH-butyl] | improved selectivity | – | –
GPQCQKWMQTCDRERKCCEGFVCTLWCRKKLW-NH-methyl [NV1D3034-NH-methyl] | improved selectivity | – | efficacy in the CFA model / reversal of CFA-induced thermal hyperalgesia [1]: readily reversed; Thermal MPE % ([1]; sc): 49 ± 17%
GPQCQKWMQTCDRERKCCEGFVCTLWCRKKLW-OH (cysteine pairing not given here) [NV1D3034] | – | – | reversal of CFA-induced thermal hyperalgesia ([1]; sc): completely reversed; efficacy in the hot plate test [4]: significant efficacy; efficacy in the tail flick test [6]: significant efficacy; efficacy in the formalin test (flinches) [7]: significant efficacy
GPQCQKWMQTCDRERKCCEGFVCTLWCRKKLWGGGGSAPAPAPAPAPAPAPAPAPAPAPAPAPAPAPGGGGSGWCGDPGATCGKLRLYCCSGFCDAYTKTCKDKSSA [NV1D3825] | – | 194 nM | –
GPQCQKWMQTCDRERKCCEGFVCTLWCRKKLWGSAPAPAPAPAPAPAPAPAPAPGSCCNCSSKWCRDHSRCC [NV1D3797] | – | 91.1 nM | –
GPQCQKWMQTCDRERKCCEGFVCTLWCRKKLWGSAPAPAPAPAPAPAPAPAPAPGSCCNCSSKWCRDHSRCCGR [NV1D3798] | – | 94.5 nM | –
GPQCQKWMQTCDRERKCCEGFVCTLWCRKKLWGSAPAPAPAPAPGSCCNCSSKWCRDHSRCC [NV1D3799] | – | 50.6 nM | –
GPQCQKWMQTCDRERKCCEGFVCTLWCRKKLWGSAPAPAPAPAPGSCCNCSSKWCRDHSRCCGR [NV1D3800] | – | 60.9 nM | –
GPQCQKWMQTCDRERKCCEGFVCTLWCRKKLWGSGGGGSAPAPAPAPAPAPAPAPAPAPGGGGSGSCCNCSSKWCRDHSRCC [NV1D3829] | – | 122 nM | –
GPQCQKWMQTCDRERKCCEGFVCTLWCRKKLWGSGGGGSAPAPAPAPAPAPAPAPAPAPGGGGSGSCCNCSSKWCRDHSRCCGR [NV1D3828] | – | 87.5 nM | –
GPQCQKWMQTCDRERKCCQGFVCTLWCRKKLW-OH (cysteine pairing not given here) [NV1D3388] | improved selectivity | – | –
GPQCQKWMQTCDRNRKCCEGFVCTLWCRKKLW-OH (cysteine pairing not given here) [NV1D3044] | improved selectivity | – | –
GPQCQKWMQTCDRTRKCCEGFVCTLWCRKKLW-NH2 [NV1D3368-NH2] | improved selectivity | – | efficacy in the CFA model / reversal of CFA-induced thermal hyperalgesia [1]: readily reversed
GPQCQKWMQTCDRTRKCCEGFVCTLWCRKKLW-OH (cysteine pairing not given here) [NV1D3368] | improved selectivity | – | reversal of CFA-induced thermal hyperalgesia ([1]; sc): fully reversed
GPRCQKWMQTCDAERKCCEGFVCRLWCKKKLW-OH (cysteine pairing not given here) [NV1D2772] | improved selectivity | – | –
GPSCQKWMQTCDAERKCCEGFVCRLWCKKKLW-OH (cysteine pairing not given here) [NV1D2773] | improved selectivity | – | –
GPSHSNTQTLAKAPEHTGAPAPAPAPAPAPAPAPAPAPQCQKWMQTCDRERKCCEGFVCTLWCRKKLW [NV1D3774] | – | 88.6 nM | –
GPYCQKWMQTCDANRKCCEGFSCRLWCKKKLW-NH2 [NV1D3586-NH2] | improved selectivity | – | –
GPYCQKWMQTCDANRKCCEGFSCRLWCKKKLW-OH (cysteine pairing not given here) [NV1D3586] | improved selectivity | – | –
GPYCQKWMQTCDSERKCCEGMVCRLWCKKKLL-OH (cysteine pairing not given here) [compound 63955918] | – | – | efficacy in the hot plate test [4]: potent and prolonged analgesia; efficacy in the tail flick test [6]: potent and prolonged analgesia; efficacy in the formalin test (flinches) [7]: less flinches
GPYCQKWMWTCDSERKCCEGMVCRLWCKKKLW-COOH [NV1D12, reference compound] | – | – | selectivity, ratio IC50(Nav1.6)/IC50(Nav1.7) in QPatch (human Nav1.6): about 28 fold
YCQKWMWTCDSERKCCEGMVCRLWCKKKLW-COOH [wild-type Protoxin-II] | – | – | inhibition of action potential firing in isolated nerves (isolated nerves): inability; efficacy in rodent models of acute and inflammatory pain [8]: non-efficacious
